Laboratory results as given in publication PMC11111408, “Concurrent inhibition of oncogenic and wild-type RAS-GTP for cancer therapy” (Nature, 2024).
Where “and” joins values, the source holds several entries; their conditions need not be identical. Identical values can stand only once.

Key:
[1] = Oral bioavailability in mice (LC-MS/MS of blood); format: in vivo; conditions: mouse, whole blood, read-out: Oral Bioavailability m%F
[2] = test system: NCI-H358 and MIA PaCa-2 cells expressing RTK constructs; test: pERK (MSD) in NCI-H358 and MIA PaCa-2 cells expressing exogenous RTK or RTK fusion constructs; format: cell-based, human

CCn1c(-c2cc(N3CCN(C4CC4)CC3)cnc2[C@H](C)OC)c2c3cc(ccc31)-c1csc(n1)C[C@H](NC(=O)[C@H]1[C@@H]3COC[C@@H]31)C(=O)N1CCC[C@H](N1)C(=O)OCC(C)(C)C2 [RMC-7977]
bioavailability [1]: 63%
pERK inhibition in MiaPaCa2 RTK fusion overexpression cells treated with RMC-7977 ([2]; CCDC6-RET, RMC-7977 0.046 nM): 114.81 and 112.21 and 120.39
pERK inhibition in MiaPaCa2 RTK fusion overexpression cells treated with RMC-7977 ([2]; CCDC6-RET, RMC-7977 0.412 nM): 62.51 and 66.85 and 62.20 and 56.39
pERK inhibition in MiaPaCa2 RTK fusion overexpression cells treated with RMC-7977 ([2]; CCDC6-RET, RMC-7977 1.235 nM): 40.55 and 38.10 and 39.55 and 34.25
pERK inhibition in MiaPaCa2 RTK fusion overexpression cells treated with RMC-7977 ([2]; CCDC6-RET, RMC-7977 3.704 nM): 15.40 and 16.48 and 16.06 and 15.78
pERK inhibition in MiaPaCa2 RTK fusion overexpression cells treated with RMC-7977 ([2]; CCDC6-RET, RMC-7977 11.111 nM): 5.99 and 6.04 and 6.20 and 6.24
pERK inhibition in MiaPaCa2 RTK fusion overexpression cells treated with RMC-7977 ([2]; CCDC6-RET, RMC-7977 33.333 nM): 4.07 and 4.10 and 4.14 and 4.22
pERK inhibition in MiaPaCa2 RTK fusion overexpression cells treated with RMC-7977 ([2]; CCDC6-RET, RMC-7977 100.000 nM): 3.63 and 3.37 and 3.48 and 3.54
pERK in NCI-H358 RTK overexpression cells treated with RMC-7977 ([2]; EGFR WT, RMC-7977 0.0152 nM): 104.75 and 140.08
pERK inhibition in H358 RTK overexpression cells ([2]; EGFR WT, RMC-7977 0.0152 nM): 88.81 and 100.67
pERK in NCI-H358 RTK overexpression cells treated with RMC-7977 ([2]; EGFR WT, RMC-7977 0.0457 nM): 101.07 and 109.46
pERK inhibition in H358 RTK overexpression cells ([2]; EGFR WT, RMC-7977 0.0457 nM): 80.53 and 78.65
pERK in NCI-H358 RTK overexpression cells treated with RMC-7977 ([2]; EGFR WT, RMC-7977 0.41 nM): 70.68 and 81.35
pERK inhibition in H358 RTK overexpression cells ([2]; EGFR WT, RMC-7977 0.41 nM): 58.96 and 57.93
pERK inhibition in H358 RTK overexpression cells ([2]; EGFR WT, RMC-7977 3.70 nM): 13.20 and 12.44
pERK inhibition in H358 RTK overexpression cells ([2]; EGFR WT, RMC-7977 11.11 nM): 5.97 and 5.02
pERK in NCI-H358 RTK overexpression cells treated with RMC-7977 ([2]; EGFR WT, RMC-7977 33.33 nM): 1.98 and 1.90
pERK inhibition in H358 RTK overexpression cells ([2]; EGFR WT, RMC-7977 33.33 nM): 3.17 and 3.29
pERK in NCI-H358 RTK overexpression cells treated with RMC-7977 ([2]; EGFR WT, RMC-7977 100.00 nM): 1.18 and 1.21
pERK inhibition in H358 RTK overexpression cells ([2]; EGFR WT, RMC-7977 100.00 nM): 3.04 and 2.54
pERK in NCI-H358 RTK overexpression cells treated with RMC-7977 ([2]; EGFR WT, RMC-7977 300.00 nM): 1.43 and 1.37
pERK inhibition in H358 RTK overexpression cells ([2]; EGFR WT, RMC-7977 300.00 nM): 2.79 and 3.22
pERK inhibition in MiaPaCa2 RTK fusion overexpression cells treated with RMC-7977 ([2]; EML4-ALK, RMC-7977 0.412 nM): 51.66 and 62.71 and 69.43
pERK inhibition in MiaPaCa2 RTK fusion overexpression cells treated with RMC-7977 ([2]; EML4-ALK, RMC-7977 1.235 nM): 29.82 and 34.96 and 36.22
pERK inhibition in MiaPaCa2 RTK fusion overexpression cells treated with RMC-7977 ([2]; EML4-ALK, RMC-7977 3.704 nM): 13.53 and 15.19 and 15.47
pERK inhibition in MiaPaCa2 RTK fusion overexpression cells treated with RMC-7977 ([2]; EML4-ALK, RMC-7977 11.111 nM): 5.91 and 5.92 and 5.79
pERK inhibition in MiaPaCa2 RTK fusion overexpression cells treated with RMC-7977 ([2]; EML4-ALK, RMC-7977 100.000 nM): 3.46 and 3.15 and 3.05
pERK in NCI-H358 RTK overexpression cells treated with RMC-7977 ([2]; FGFR2, RMC-7977 0.0152 nM): 105.65
pERK inhibition in H358 RTK overexpression cells ([2]; FGFR2, RMC-7977 0.0152 nM): 106.96
pERK in NCI-H358 RTK overexpression cells treated with RMC-7977 ([2]; FGFR2, RMC-7977 0.0457 nM): 88.22
pERK inhibition in H358 RTK overexpression cells ([2]; FGFR2, RMC-7977 0.0457 nM): 111.13
pERK in NCI-H358 RTK overexpression cells treated with RMC-7977 ([2]; FGFR2, RMC-7977 0.41 nM): 48.78
pERK inhibition in H358 RTK overexpression cells ([2]; FGFR2, RMC-7977 0.41 nM): 65.30
pERK inhibition in H358 RTK overexpression cells ([2]; FGFR2, RMC-7977 3.70 nM): 17.67
pERK inhibition in H358 RTK overexpression cells ([2]; FGFR2, RMC-7977 11.11 nM): 6.99
pERK in NCI-H358 RTK overexpression cells treated with RMC-7977 ([2]; FGFR2, RMC-7977 33.33 nM): 3.56
pERK inhibition in H358 RTK overexpression cells ([2]; FGFR2, RMC-7977 33.33 nM): 3.76
pERK in NCI-H358 RTK overexpression cells treated with RMC-7977 ([2]; FGFR2, RMC-7977 100.00 nM): 2.34
pERK inhibition in H358 RTK overexpression cells ([2]; FGFR2, RMC-7977 100.00 nM): 2.57
pERK in NCI-H358 RTK overexpression cells treated with RMC-7977 ([2]; FGFR2, RMC-7977 300.00 nM): 1.90
pERK inhibition in H358 RTK overexpression cells ([2]; FGFR2, RMC-7977 300.00 nM): 2.56
pERK inhibition in MiaPaCa2 RTK fusion overexpression cells treated with RMC-7977 ([2]; FGFR3-TACC3, RMC-7977 0.412 nM): 52.00 and 53.38 and 52.06 and 52.75
pERK inhibition in MiaPaCa2 RTK fusion overexpression cells treated with RMC-7977 ([2]; FGFR3-TACC3, RMC-7977 1.235 nM): 23.92 and 29.24 and 28.51 and 28.89
pERK inhibition in MiaPaCa2 RTK fusion overexpression cells treated with RMC-7977 ([2]; FGFR3-TACC3, RMC-7977 3.704 nM): 15.09 and 13.49 and 14.38 and 14.06
pERK inhibition in MiaPaCa2 RTK fusion overexpression cells treated with RMC-7977 ([2]; FGFR3-TACC3, RMC-7977 11.111 nM): 7.76 and 6.95 and 7.39 and 7.30
pERK inhibition in MiaPaCa2 RTK fusion overexpression cells treated with RMC-7977 ([2]; FGFR3-TACC3, RMC-7977 33.333 nM): 4.29 and 4.25 and 4.22
pERK inhibition in MiaPaCa2 RTK fusion overexpression cells treated with RMC-7977 ([2]; FGFR3-TACC3, RMC-7977 100.000 nM): 3.04 and 3.39 and 3.61 and 3.12
pERK in NCI-H358 RTK overexpression cells treated with RMC-7977 ([2]; GFP, RMC-7977 0.0152 nM): 115.00 and 107.70
